In patent publication US8178669B2, “Fluorescent probe for peroxynitrite” (The University of Tokyo, priority 2005, dated 2012):

Key:
[1] = Reaction of Compound 4 and various reactive oxygen species: hypochlorite ion; settings: 10 μmol/L Compound 4, pH 7.4; hypochlorite ions 10 μmol/L, 3 minutes
Description: (§1) A 10 μmol/L solution of Compound 4 was prepared by diluting a 20 mmol/L solution of Compound 4 in DMF with a 100 mmol/L phosphate buffer (pH 7.4), and used for the test. The prepared solution was treated under the following conditions for 3 minutes (except for (f), for which treatment time was 30 minutes).
(e) Hypochlorite ions were added to make a final concentration of 10 μmol/L.
(§2) After the reaction, change of fluorescence spectrum under each condition was measured to compare reactivities of the compound with (#2) peroxynitrite, (#3) hydrogen peroxide, (#4) singlet oxygen, (#5) hydroxyl radical, (#6) hypochlorite ion, and (#7) nitrogen monoxide.

[2] = Reaction of Compound 4 and various reactive oxygen species: nitrogen monoxide; settings: 10 μmol/L Compound 4, pH 7.4; NOC-13 100 μmol/L, 30 minutes
Description: as §1
(f) NOC-13 (nitrogen monoxide discharging agent, Dojindo Laboratory) was added to make a final concentration of 100 μmol/L.
as §2

[3] = system: HeLa cells; test: Imaging of peroxynitrite using Compound 4 in HeLa cells; format: cell-based; settings: HeLa cells loaded with 2 μmol/L Compound 4, 20 minutes; peroxynitrite 10 μmol/L; excitation 470 to 490 nm, emission 510 to 550 nm
Description: HeLa cells were precultured in Dulbecco's modified Eagle's medium (DMEM) supplemented with 10% (v/v) fetal bovine serum, penicillin (100 units/mL), and streptomycin (100 μg/mL) in a 5% CO2 incubator. These HeLa cells were inoculated on a 35 mm glass bottom dish (MatTek Corporation), and further cultured overnight in DMEM. After 24 hours, the medium was removed, and the HeLa cells were washed with Hank's balanced salt solution (HBSS, 2×1 mL). The HeLa cells were added with 2 mL of 2 μmol/L solution of Compound 4 in HBSS (containing 0.01% DMF and 0.01% Cremophor EL (SIGMA) as auxiliary solvents), and incubated at room temperature for 20 minutes. Then, the HeLa cells were washed with HBSS (2×1 mL). Fluorescence images before addition of peroxynitrite and after addition of peroxynitrite at a final concentration of 10 μmol/L were photographed at an excitation wavelength of 470 to 490 nm and fluorescence emission wavelength of 510 to 550 nm.
Among the photographs, (A) is a differential interference microscope image of HeLa cells loaded with Compound 4, (B) is a pseudo color fluorescence image of fluorescence intensity before addition of peroxynitrite, (C) is a pseudo color fluorescence image of fluorescence intensity after addition of peroxynitrite, and (D) is a fused image of (A) and (B).

[4] = Reaction of Compound 4 and various reactive oxygen species: hydroxyl radical; settings: 10 μmol/L Compound 4, pH 7.4; hydrogen peroxide 1 mmol/L and iron(II) sulfate 50 μmol/L, 3 minutes
Description: as §1
(d) Hydrogen peroxide and iron(II) sulfate were added to make final concentrations of 1 mmol/L and 50 μmol/L, respectively.
as §2

[5] = Reaction of Compound 4 and various reactive oxygen species: peroxynitrite
Description: as §1
(a) Peroxynitrite was added to make a final concentration of 10 μmol/L.
as §2

[6] = Reaction of Compound 4 and peroxynitrite (fluorescence spectrum); settings: 10 μmol/L Compound 4, 100 mmol/L phosphate buffer pH 7.4; peroxynitrite 1-50 μmol/L; after 60 seconds; excitation 505 nm
Description: A 10 μmol/L solution of Compound 4 was prepared by diluting a 20 mmol/L solution of Compound 4 in DMF with a 100 mmol/L phosphate buffer (pH 7.4). The solution was added with peroxynitrite solutions of 2 mmol/L, 5 mmol/L, 10 mmol/L, 20 mmol/L and 80 mmol/L at peroxynitrite final concentrations of 1, 2, 4, 5, 10, 20 or 50 μmol/L with stirring, and after 60 seconds, fluorescence spectrum was measured (excitation wavelength: 505 nm).

[7] = Reaction of Compound 4 and various reactive oxygen species: hydrogen peroxide; settings: 10 μmol/L Compound 4, pH 7.4; hydrogen peroxide 1 mmol/L, 3 minutes
Description: as §1
(b) Hydrogen peroxide was added to make a final concentration of 1 mmol/L.
as §2

[8] = Reaction of Compound 4 and various reactive oxygen species: singlet oxygen; settings: 10 μmol/L Compound 4, pH 7.4; hydrogen peroxide 1 mmol/L and hypochlorite ions 100 μmol/L, 3 minutes
Description: as §1
(c) Hydrogen peroxide and hypochlorite ions were added to make final concentrations of 1 mmol/L and 100 μmol/L, respectively.
as §2

CC1=C(C#N)C(C)=[N+]2C1=C(c1ccc(O)cc1OCC(=O)O)c1c(C)c(C#N)c(C)n1[B-]2(F)F [Compound 4, 2,6-dicyano-8-(4-hydroxy-2-carboxymethoxyphenyl)-1,3,5,7-tetramethyl-4,4-difluoro-4-bora-3a,4a-diaza-s-indacene]
fluorescence after addition of hypochlorite ion [1]: did not emit fluorescence at all | fluorescence after addition of nitrogen monoxide [2]: did not emit fluorescence at all | fluorescence imaging of peroxynitrite in cells [3]: fluorescence imaging of peroxynitrite was performable | fluorescence after addition of hydroxyl radical [4]: did not emit fluorescence at all | fluorescence after addition of peroxynitrite ([5]; 10 μmol/L Compound 4, pH 7.4, peroxynitrite 10 μmol/L, 3 minutes): emitted intense fluorescence | selectivity to peroxynitrite over other reactive oxygen species ([5]; compared with hydrogen peroxide, singlet oxygen, hydroxyl radical, hypochlorite ion, nitrogen monoxide): high selectivity to peroxynitrite | change of fluorescence intensity on addition of peroxynitrite [6]: peroxynitrite addition amount-dependent increase in fluorescence intensity was observed | fluorescence after addition of hydrogen peroxide [7]: did not emit fluorescence at all | fluorescence after addition of singlet oxygen [8]: did not emit fluorescence at all
